Experimental data published in article PMC9696335, “Natural Inhibitors Targeting the Localization of Lipoprotein System in Vibrio parahaemolyticus” (International Journal of Molecular Sciences, 2022).

What was measured:
LolB [1] = target: T1, LolB (Vibrio parahaemolyticus, UniProt Q87RN6); assay: intrinsic fluorescence quenching of purified LolB (Stern-Volmer Ksv; Kd only said to be micromolar); type: binding
T1 construct: Residues 26-212, N-terminal His6 tag

LolB [2] = target: T1, LolB; assay: intrinsic fluorescence quenching of purified LolB, one-site binding fit

T1 sequence (Q87RN6 17-203): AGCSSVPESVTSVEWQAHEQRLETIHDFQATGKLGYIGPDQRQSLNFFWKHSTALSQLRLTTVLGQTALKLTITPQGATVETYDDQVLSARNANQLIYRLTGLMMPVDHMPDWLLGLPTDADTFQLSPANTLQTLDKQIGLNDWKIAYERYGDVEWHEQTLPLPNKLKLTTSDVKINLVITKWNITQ

Row | Compound | Ksv (10^4 L/mol) (LolB [1]) | Kd (LolB [2]) [µM]
1 | C[C@@H]1O[C@@H](OC[C@H]2O[C@@H](Oc3c(-c4ccc(OCCO)c(OCCO)c4)oc4cc(OCCO)cc(O)c4c3=O)[C@H](O)[C@@H](O)[C@@H]2O)[C@H](O)[C@H](O)[C@H]1O [troxerutin] | 14.2317 10^4 L/mol | –
2 | Oc1cc(O)c2c(c1)O[C@@H](c1ccc(O)c(O)c1)[C@@H](O[C@]1(c3ccc(O)c(O)c3)Oc3cc(O)cc(O)c3[C@@H](O)[C@H]1O)C2 [procyanidin] | – | 14.7 ± 4.65
3 | C[C@@H]1O[C@@H](OC[C@H]2O[C@@H](Oc3c(-c4ccc(O)c(O)c4)oc4cc(O)cc(O)c4c3=O)[C@H](O)[C@@H](O)[C@@H]2O)[C@H](O)[C@H](O)[C@H]1O [rutin] | 8.7014 10^4 L/mol | –
4 | C=C1C[C@@]23CC[C@H]4[C@@](C)(CCC[C@@]4(C)C(=O)O[C@@H]4O[C@H](CO)[C@@H](O)[C@H](O)[C@H]4O)[C@@H]2CC[C@]1(O[C@@H]1O[C@H](CO)[C@@H](O)[C@H](O)[C@H]1O[C@@H]1O[C@H](CO)[C@@H](O)[C@H](O)[C@H]1O)C3 [stevioside] | 6.1570 10^4 L/mol | –
